≈ marks a conversion by molar mass, not a printed value. Where two headings read alike, the source gives them in different places.
Legend:
[1] = test system: Escherichia coli 3; assay: Antimicrobial activity assay (broth microdilution MIC); type: cell-based; settings: read-out: MIC, E. coli 3
Procedure: (§1) Whole-cell antimicrobial activity was determined by broth microdilution using the Clinical and Laboratory Standards Institute (CLSI, formerly NCCLS) recommended methodology (NCCLS Document M7-A7, “Methods for Dilution Antimicrobial Susceptibility Tests for Bacteria that Grow Aerobically; Approved Standard—Seventh Edition”, 2006). Compounds were tested in serial two-fold dilutions ranging from 64 to 0.06 μg/mL against a panel of at least 11 strains. This panel consisted of the following laboratory strains: Staphylococcus aureus Oxford, Staphylococcus aureus WCUH29, Enterococcus faecalis I, Enterococcus faecalis 7 or Enterococcus faecalis X7501, Haemophilus influenzae Q1, Haemophilus influenzae NEMC1 or Haemophilus influenzae H128, Moraxella catarrhalis 1502, Streptococcus pneumoniae 1629, Streptococcus pneumoniae N1387, Streptococcus pneumoniae Ery2 and Escherichia coli 7623 or Escherichia coli 3. All compounds were also tested against Haemophilus influenzae H128 or Escherichia coli 7623 efflux minus mutants (strains in which the AcrA efflux pump had been deleted) to ascertain the extent in which the molecules were effluxed out of the bacteria. In addition, the antibacterial activity of some compounds against Streptococcus pyogenes 1307006P and Streptococcus pyogenes 1308007P was also analyzed. The minimum inhibitory concentration (MIC) was determined as the lowest concentration of compound that inhibited visible growth. A mirror reader was used to assist in determining the MIC endpoint.

[2] = test system: Enterococcus faecalis X7501; assay: as above; type: cell-based; settings: read-out: MIC, E. faecalis X7501
Procedure: as §1

[3] = test system: Staphylococcus aureus WCUH29; assay: as above; type: cell-based; settings: read-out: MIC, S. aureus WCUH29
Procedure: as §1

[4] = test system: Streptococcus pneumoniae 1629; assay: as above; type: cell-based; settings: read-out: MIC, S. pneumoniae 1629
Procedure: as §1

[5] = test system: Streptococcus pneumoniae Ery2; assay: as above; type: cell-based; settings: ERY2, read-out: MIC, S. pneumoniae ERY2
Procedure: as §1

[6] = test system: Staphylococcus aureus Oxford; assay: as above; type: cell-based; settings: read-out: MIC, S. aureus Oxford
Procedure: as §1

[7] = test system: Haemophilus influenzae H128; assay: as above; type: cell-based; settings: read-out: MIC, H. influenzae H128
Procedure: as §1

[8] = test system: Moraxella catarrhalis 1502; assay: as above; type: cell-based
Procedure: as §1

[9] = test system: Streptococcus pneumoniae N1387; assay: as above; type: cell-based; settings: read-out: MIC, S. pneumoniae N1387
Procedure: as §1

[10] = test system: Streptococcus pyogenes 1308007P; assay: as above; type: cell-based; settings: read-out: MIC, S. pyogenes 1308007P
Procedure: as §1

[11] = test system: Enterococcus faecalis I; assay: as above; type: cell-based; settings: read-out: MIC, E. faecalis I
Procedure: as §1

[12] = test system: Haemophilus influenzae Q1; assay: as above; type: cell-based
Procedure: as §1

[13] = biological target: T1, Streptococcus pneumoniae PDF (Streptococcus pneumoniae serotype 4, UniProt Q9F2F0); assay: PDF IC50 Assay 1 (FDH-coupled, absorbance 340 nm); type: biochemical; settings: Assay 1 conditions; read-out: IC50, S. pneumoniae PDF activity
T1 sequence (Q9F2F0 1-203): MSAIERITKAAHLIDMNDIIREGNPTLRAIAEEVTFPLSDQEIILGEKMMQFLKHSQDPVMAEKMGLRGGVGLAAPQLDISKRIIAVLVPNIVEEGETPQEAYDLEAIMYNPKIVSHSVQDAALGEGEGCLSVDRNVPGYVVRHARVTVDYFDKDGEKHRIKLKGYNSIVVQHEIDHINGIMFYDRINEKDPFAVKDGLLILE
Procedure: (§2) Enzymatic activity of PDF was measured using a formate dehydrogenase (FDH)-coupled assay [Lazennec and Meinnel (1997) Anal. Biochem. 244, 180-182]. Once formate is released from methionine by PDF, it is oxidized by FDH thereby reducing one molecule of NAD to NADH and resulting in an increase in absorbance at 340 nm. Reactions were initiated by adding PDF to microtiter plates containing all other reaction components and were continuously monitored for 20 min at 25° C. The final reaction composition for the Staphylococcus aureus PDF (SaPDF) assay was 50 mM potassium phosphate, pH 7.6, 5 units/mL FDH, 7 mM NAD, 1% DMSO, 0.01% CHAPS, 1 nM SaPDF, and 3 mM formyl-Met-Ala-Ser in 40 μL total volume. Serial dilutions of inhibitors were performed in DMSO. Reagents and assay format were identical for Haemophilus influenzae PDF except that formyl-Met-Ala-Ser was 6 mM final. In the Streptococcus pneumoniae PDF assay, reaction conditions were similar but contained […] enzyme, 4 mM NAD and 4 mM formyl-Met-Ala-Ser. The varying formyl-Met-Ala-Ser concentrations reflect KM values for substrate using the different PDF isozymes. IC50s were determined by fitting to the equation: % Inhibition=100/1+(IC50/[l])^s, where s is a slope factor, l is the inhibitor concentration and the IC50 is the concentration of compound that causes 50% inhibition.

[14] = biological target: T2, Haemophilus influenzae PDF (Haemophilus influenzae, UniProt P44786); assay: PDF IC50 Assay 1 (FDH-coupled, absorbance 340 nm); type: biochemical
Procedure: as §2

[15] = biological target: T3, Staphylococcus aureus PDF (SaPDF) (Staphylococcus aureus, UniProt P68826); assay: PDF IC50 Assay 1 (FDH-coupled, absorbance 340 nm); type: biochemical; settings: Assay 1 conditions; read-out: IC50, S. aureus PDF activity
T3 sequence (P68826 1-183): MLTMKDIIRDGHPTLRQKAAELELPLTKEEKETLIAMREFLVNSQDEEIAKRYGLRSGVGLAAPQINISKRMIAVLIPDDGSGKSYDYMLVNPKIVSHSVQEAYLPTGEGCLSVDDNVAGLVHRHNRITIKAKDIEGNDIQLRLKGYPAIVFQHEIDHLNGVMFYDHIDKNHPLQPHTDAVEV
Procedure: as §2

[16] = biological target: T1, Streptococcus pneumoniae PDF; assay: PDF IC50 Assay 2 (FDH/NAD+/Diaphorase-coupled fluorescence); type: biochemical; settings: Assay 2 conditions; read-out: IC50, S. pneumoniae PDF activity
Procedure: (§3) Enzymatic activity of PDF was measured using a formate dehydrogenase (FDH)/NAD+/Diaphorase-coupled Fluorescence detection assay. Once formate is released from methionine by PDF, it is oxidized by FDH, thereby reducing one molecule of NAD to NADH. Diaphorase then catalyzes the conversion of Resazurin to Resarufin using the NADH produced by the FDH reaction. The fluorescence intensity of Resarufin is monitored by excitation at 525 nm and emission at 598 nm. The reaction is assembled by first adding the NAD, f-MAS and Resazurin to each well of a 384 well plate containing 50 nl of test compounds. Reactions were initiated by adding PDF in reaction buffer containing FDH and Diaphorase. The final reaction composition for the Staphylococcus aureus PDF (SaPDF) assay was 50 mM potassium phosphate, 0.025% CHAPS pH 7.6, 0.25 units/mL FDH, 0.156 μm! Diaphorase; 0.025 mg/ml BSA; 1 mM NAD, 0.5% DMSO, 1 mM formyl-Met-Ala-Ser; 5 uM Resazurin, and 1 nM SaPDF, in 10 μL total volume. Serial dilutions of inhibitors were performed in DMSO. Reagents and assay format were identical for the Haemophilus influenzae PDF; in the Streptococcus pneumoniae PDF assays, assay composition was the same, except that […] enzyme was used. The endpoint of each reaction was chosen to ensure that all data were collected within the linear range of catalysis. IC50s were determined by fitting to the equation: % Inhibition=100/1+(IC50/[l])^s, where s is a slope factor, l is the inhibitor concentration and the IC50 is the concentration of compound that causes 50% inhibition.

[17] = biological target: T2, Haemophilus influenzae PDF; assay: as above; type: biochemical
Procedure: as §3

[18] = biological target: T3, Staphylococcus aureus PDF (SaPDF); assay: as above; type: biochemical; settings: Assay 2 conditions; read-out: IC50, S. aureus PDF activity
Procedure: as §3

[19] = Q1, broth microdilution, read-out: MIC, H. influenzae Q1

T2 sequence (P44786 whole entry): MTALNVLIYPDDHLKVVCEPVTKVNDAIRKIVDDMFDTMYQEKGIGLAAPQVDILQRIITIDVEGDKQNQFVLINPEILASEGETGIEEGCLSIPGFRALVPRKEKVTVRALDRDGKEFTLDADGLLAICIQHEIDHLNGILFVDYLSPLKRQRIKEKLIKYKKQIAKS

| Compound | MIC [1] | MIC [2] | MIC [3] | MIC [4] | MIC [5] | MIC [6] | MIC [7] | MIC [8] | MIC [9] | MIC [10] | MIC [11] | MIC [12, 19] | IC50 [13] | IC50 [14] | IC50 [15] | IC50 [16] | IC50 [17] | IC50 [18] | MIC ([12]; Q1, read-out: MIC, H. influenzae Q1) |
| --- | --- | --- | --- | --- | --- | --- | --- | --- | --- | --- | --- | --- | --- | --- | --- | --- | --- | --- | --- |
| O=CN(O)C[C@@H](CC1CCCC1)C(=O)N1NCC[C@H]1C(=O)Nc1cccc[n+]1[O-] [Example 45, (3S)-2-((2R)-3-Cyclopentyl-2-{[formyl(hydroxy)amino]methyl}propanoyl)-N-(1-oxido-2-pyridinyl)-3-pyrazolidinecarboxamide] | 32 mg/L (≈ 78.9 µM) | 8 mg/L (≈ 19.7 µM) | 0.25 mg/L (≈ 0.617 µM) | 0.5 mg/L (≈ 1.23 µM) | 0.25 mg/L (≈ 0.617 µM) | 1 mg/L (≈ 2.47 µM) | 1 mg/L (≈ 2.47 µM) | ≤ 0.06 mg/L | 0.25 mg/L (≈ 0.617 µM) | 4 mg/L (≈ 9.87 µM) | 2 mg/L (≈ 4.93 µM) | 0.5 mg/L (≈ 1.23 µM) |  |  |  |  |  |  |  |
| O=CN(O)C[C@@H](CC1CCCC1)C(=O)N1NCC[C@H]1C(=O)Nc1ccncn1 [Example 59, (3S)-2-((2R)-3-Cyclopentyl-2-{[formyl(hydroxy)amino]methyl}propanoyl)-N-4-pyrimidinyl-3-pyrazolidinecarboxamide] | 16 mg/L (≈ 41 µM) | 1 mg/L (≈ 2.56 µM) | ≤ 0.06 mg/L | 1 mg/L (≈ 2.56 µM) | 0.25 mg/L (≈ 0.64 µM) | 0.5 mg/L (≈ 1.28 µM) | 0.5 mg/L (≈ 1.28 µM) | ≤ 0.06 mg/L | 0.5 mg/L (≈ 1.28 µM) | 0.25 mg/L (≈ 0.64 µM) | 2 mg/L (≈ 5.12 µM) | 0.25 mg/L (≈ 0.64 µM) | ≤ 1 µM | ≤ 1 µM | ≤ 1 µM |  |  |  |  |
| CN(C)CCOc1nccc(NC(=O)[C@@H]2CCNN2C(=O)[C@H](CC2CCCC2)CN(O)C=O)n1 [Example 81, (3S)-2-((2R)-3-Cyclopentyl-2-{[formyl(hydroxy)amino]methyl}propanoyl)-N-(2-{[2-(dimethylamino)ethyl]oxy}-4-pyrimidinyl)-3-pyrazolidinecarboxamide] |  |  |  |  |  |  |  |  |  |  |  |  |  |  |  | ≤ 1 µM | ≤ 1 µM | ≤ 1 µM |  |
| O=CN(O)C[C@@H](CC1CCCC1)C(=O)N1NCC[C@H]1C(=O)Nc1ncccn1 [Example 84, (3S)-2-((2R)-3-Cyclopentyl-2-{[formyl(hydroxy)amino]methyl}propanoyl)-N-2-pyrimidinyl-3-pyrazolidinecarboxamide] | 16 mg/L (≈ 41 µM) | 16 mg/L (≈ 41 µM) | 0.125 mg/L (≈ 0.32 µM) | 1 mg/L (≈ 2.56 µM) | 1 mg/L (≈ 2.56 µM) | 0.5 mg/L (≈ 1.28 µM) | 0.5 mg/L (≈ 1.28 µM) | ≤ 0.06 mg/L | 1 mg/L (≈ 2.56 µM) | 0.5 mg/L (≈ 1.28 µM) | 8 mg/L (≈ 20.5 µM) |  |  |  |  | ≤ 1 µM | ≤ 1 µM | ≤ 1 µM | 0.125 mg/L (≈ 0.32 µM) |
| CN(C)Cc1nccc(NC(=O)[C@@H]2CCNN2C(=O)[C@H](CC2CCCC2)CN(O)C=O)n1 [Example 91, (3S)-2-((2R)-3-Cyclopentyl-2-{[formyl(hydroxy)amino]methyl}propanoyl)-N-{2-[(dimethylamino)methyl]-4-pyrimidinyl}-3-pyrazolidinecarboxamide] | 4 mg/L (≈ 8.94 µM) | 16 mg/L (≈ 35.8 µM) | 1 mg/L (≈ 2.23 µM) | 2 mg/L (≈ 4.47 µM) | 1 mg/L (≈ 2.23 µM) | 4 mg/L (≈ 8.94 µM) | 0.5 mg/L (≈ 1.12 µM) | ≤ 0.06 mg/L | 0.5 mg/L (≈ 1.12 µM) | 1 mg/L (≈ 2.23 µM) | 16 mg/L (≈ 35.8 µM) | 0.5 mg/L (≈ 1.12 µM) |  |  |  |  |  |  |  |
| O=CN(O)C[C@@H](CC1CCCC1)C(=O)N1N=CC[C@H]1C(=O)Nc1ccncn1 [Example 92, (5S)-1-((2R)-3-Cyclopentyl-2-{[formyl(hydroxy)amino]methyl}propanoyl)-N-4-pyrimidinyl-4,5-dihydro-1H-pyrazole-5-carboxamide] | 16 mg/L (≈ 41.2 µM) | 1 mg/L (≈ 2.57 µM) | 0.125 mg/L (≈ 0.322 µM) | 0.5 mg/L (≈ 1.29 µM) | 0.25 mg/L (≈ 0.644 µM) | 0.25 mg/L (≈ 0.644 µM) | 0.5 mg/L (≈ 1.29 µM) | ≤ 0.06 mg/L | 0.125 mg/L (≈ 0.322 µM) | 0.5 mg/L (≈ 1.29 µM) | 1 mg/L (≈ 2.57 µM) | 0.5 mg/L (≈ 1.29 µM) |  |  |  |  |  |  |  |
| CCCCC[C@H](CN(O)C=O)C(=O)N1NCC[C@H]1C(=O)Nc1ccc(F)cn1 [Example 100, (3S)—N-(5-Fluoro-2-pyridinyl)-2-((2R)-2-{[formyl(hydroxy)amino]methyl}heptanoyl)-3-pyrazolidinecarboxamide] |  |  |  |  |  |  |  |  |  |  |  |  | ≤ 1 µM | ≤ 1 µM | ≤ 1 µM |  |  |  |  |
| CCCCC[C@H](CN(O)C=O)C(=O)N1NCC[C@H]1C(=O)Nc1ccncn1 [Example 101, (3S)-2-((2R)-2-{[Formyl(hydroxy)amino]methyl}heptanoyl)-N-4-pyrimidinyl-3-pyrazolidinecarboxamide] |  |  |  |  |  |  |  |  |  |  |  |  |  |  |  | ≤ 1 µM | ≤ 1 µM | ≤ 1 µM |  |
| O=CN(O)C[C@@H](CC1CCCC1)C(=O)N1NCC[C@H]1C(=O)Nc1ccc(O)cc1 [Example 123, (3S)-2-((2R)-3-Cyclopentyl-2-{[formyl(hydroxy)amino]methyl}propanoyl)-N-(4-hydroxyphenyl)-3-pyrazolidinecarboxamide] |  |  |  |  |  |  |  |  |  |  |  |  |  |  |  | ≤ 1 µM | ≤ 1 µM | ≤ 1 µM |  |
